Where two headings read alike, the source gives them in different places.
Key:
[1] = Membrane permeation, PAMPORE system (hydrophilic pores in the lipid layer); details: hydrophilic pores in the lipid layer (paracellular path); 125 or 250 μM, Tris-buffer pH 7.4, 16 hours
Source text: (§1) The combination of these two test systems allows the study of the permeability of a plurality of active ingredients independently of the type of transport which they prefer.

[2] = Membrane permeation, traditional artificial membrane without hydrophilic pores (Standard); details: artificial membrane without hydrophilic pores (transcellular path); 125 or 250 μM, Tris-buffer pH 7.4, 16 hours
Source text: as §1

Epstein-Barr = details: cited from earlier work
herpes simplex = details: cited from earlier work
Varizella zoster = details: cited from earlier work
[3] = AIDS, chemotherapy; i.v. administration; cited from earlier work
[4] = cited from earlier work
[5] = tested on: Herpes simplex 1, herpes simplex 2, varicella zoster; details: cited from earlier work
CMV = details: in achievable concentrations; cited from earlier work

In the case of “Tetramethyltetramethyl resorcin[4]arenes”, the “Membrane permeation (%) PAMPORE” value [1] was 95% and the “Membrane permeation (%) Standard” value [2] was under 15%.

In the case of Nc1nc2c(ncn2COCCO)c(=O)[nH]1 [aciclovir], the “Activity against Epstein-Barr” value (Epstein-Barr) is listed as “only in vitro”, the “Effect in recurring mucocutaneous herpes infections” value (herpes simplex; chron. suppressive therapy) is listed as “reduces rate of attack” and the “Effect in mucocutaneous herpes simplex infections” value (herpes simplex; mucocutaneous herpes simplex infections) is listed as “overall moderate benefit”. The “Effect on post-herpetic neuralgia” value (Varizella zoster; in vivo) was “no clear effect”, the “Effect on healing in varizella zoster infections” value (Varizella zoster; symptoms, lesions, pain) was “faster healing” and the “Effect in immune suppressed patients” value [3] was “prevents dissemination, faster healing”. The t/2 ([4]; anuria (renal insufficiency)) was 18 h, the t/2 ([4]; normal renal function) was 3 h and the “Activity (order of activity against viruses)” value [5] was “Herpes simplex 1>herpes simplex 2>varicella zoster”. The “Activity against CMV” value (CMV) was “not active”.

In the case of “5,11,17,23-tetrasulphonic acid calix[4]arenes”, the “Membrane permeation (%) PAMPORE” value [1] was 100% and the “Membrane permeation (%) Standard” value [2] was under 15%.

In the case of Hexasulphonic acid calix[6]arenes, the “Membrane permeation (%) PAMPORE” value [1] was 100% and the “Membrane permeation (%) Standard” value [2] was 0%.
